Marks after values point to notes of the source that are not given here.
Legend:
Assay type in all cases: in vivo
Botrytis cinerea = assay: Test A: preventive spray on tomato seedlings, visual disease rating (tomato Botrytis)
Description: (§1) General protocol for preparing test suspensions for Tests A-F: the test compounds were first dissolved in acetone in an amount equal to 3% of the final volume and then suspended at the desired concentration (in ppm) in acetone and purified water (50/50 mix by volume) containing 250 ppm of the surfactant Trem® 014 (polyhydric alcohol esters). The resulting test suspensions were then used in Tests A-F. Spraying a 200 ppm test suspension to the point of run-off on the test plants was the equivalent of a rate of 800 g/ha. Unless otherwise indicated, the rating values indicate a 200 ppm test suspension was used. (An asterisk “*” next to the rating value indicates a 40 ppm test suspension was used.)
(§2) The test suspension was sprayed to the point of run-off on tomato seedlings. The following day the seedlings were inoculated with a spore suspension of Botrytis cinerea (the causal agent of tomato Botrytis) and incubated in saturated atmosphere at 20° C. for 48 h, and then moved to a growth chamber at 24° C. for 3 days, after which time visual disease ratings were made.
(§3) Results for Tests A-F are given in Table A. In the Table, a rating of 100 indicates 100% disease control and a rating of 0 indicates no disease control (relative to the controls). A dash (-) indicates no test results. An asterisk “*” next to the rating value indicates a 40 ppm test suspension was used.

Septoria tritici = assay: Test D: preventive spray on wheat seedlings, visual disease rating (wheat leaf blotch)
Description: as §1
as §2, with “wheat” for “tomato”, “Septoria tritici” for “Botrytis cinerea”, “wheat leaf blotch)” for “tomato Botrytis)”, “24°” for “20°”, “20°” for “24°”, “19” for “3”
as §3

[1] = system: Puccinia recondite f. sp. tritici; assay: Test E2: preventive spray on wheat seedlings, visual disease rating (wheat leaf rust)
Description: as §1
The test suspension was sprayed to the point of run-off on wheat seedlings. The following day the seedlings were inoculated with a spore suspension of Puccinia recondite f. sp. tritici (the causal agent of wheat leaf rust) and incubated in a saturated atmosphere at 20° C. for 24 h, and then moved to a growth chamber at 20° C. for 7 days, after which time visual disease ratings were made.
as §3

[2] = system: Blumeria graminis f. sp. tritici; assay: Test F: preventive spray on wheat seedlings, visual disease rating (wheat powdery mildew)
Description: as §1
The test suspension was sprayed to the point of run-off on wheat seedlings. The following day the seedlings were inoculated with a spore dust of Blumeria graminis f. sp. tritici, (also known as Erysiphe graminis f. sp. tritici, the causal agent of wheat powdery mildew) and incubated in a growth chamber at 20° C. for 8 days, after which time visual disease ratings were made.
as §3

[3] = no asterisk: standard test suspension, not 40 ppm, 100 = 100% disease control, 0 = none
[4] = no asterisk: standard test suspension, not 40 ppm
[5] = asterisk: 40 ppm test suspension

SMILES | Test A rating (% disease control) (Botrytis cinerea; [3]) [%] | Test D rating (% disease control) (Septoria tritici; [4]) [%] | Test E2 rating (% disease control) [1, 4] [%] | Test F rating (% disease control) [2, 4] [%] | Test A rating (% disease control) (Botrytis cinerea; [5]) | Test D rating (% disease control) (Septoria tritici; [5]) | Test E2 rating (% disease control) [1, 5] | Test F rating (% disease control) [2, 5]
Cn1nc(Cl)c(C(O)c2ccc(F)cc2F)c1-c1c(F)cccc1Cl (centres unmarked) [compound 133] | 100 | 100 | 100 | 99 | – | – | – | –
Cc1nn(C)c(-c2c(Cl)cncc2Cl)c1C(O)c1ccc(F)cc1Cl (centres unmarked) [compound 98] | – | – | – | – | 94* % | 100* % | 100* % | 100* %
COc1nn(C)c(-c2ccc(F)cc2Cl)c1C(O)c1ccc(F)cc1Cl (centres unmarked) [compound 118] | 100 | 100 | 99 | 100 | – | – | – | –
Cn1nc(Cl)c(C(O)c2ccc(F)cc2Cl)c1-c1c(F)cccc1F (centres unmarked) [compound 137] | 100 | 100 | 100 | 100 | – | – | – | –
Cc1cc(C)n(-c2c(C(O)c3ccc(F)cc3F)c(C)nn2C)n1 (centres unmarked) [compound 159] | 0 | 0 | 0 | 0 | – | – | – | –
Cc1nn(C)c(-c2c(F)cc(Br)cc2F)c1C(O)c1ccc(F)cc1F (centres unmarked) [compound 106] | 98 | 100 | 97 | 0 | – | – | – | –
Cn1nc(Br)c(C(O)c2ccc(Cl)cc2Cl)c1-c1c(F)cccc1F (centres unmarked) [compound 163] | 100 | 100 | 100 | 98 | – | – | – | –
Cc1nn(C)c(-c2c(F)cccc2Br)c1C(O)c1ccc(F)cc1Cl (centres unmarked) [compound 94] | 99 | 100 | 100 | 100 | – | – | – | –
COc1nn(C)c(-c2c(F)cccc2Cl)c1C(O)c1ccc(F)cc1Cl (centres unmarked) [compound 120] | 100 | 100 | 100 | 100 | – | – | – | –
Cn1nc(Br)c(C(O)c2ccc(F)cc2Br)c1-c1c(F)cccc1Cl (centres unmarked) [compound 132] | 0 | – | – | 100 | – | 100* % | 99* % | –
Cc1nn(C)c(-c2c(F)cncc2F)c1C(O)c1ccc(F)cc1Cl (centres unmarked) [compound 166] | – | – | – | – | 99* % | 100* % | 99* % | 93* %
COc1nn(C)c(-c2c(F)cccc2F)c1C(O)c1ccc(F)cc1Cl (centres unmarked) [compound 126] | 100 | 100 | 100 | 100 | – | – | – | –
Cc1nn(C)c(-c2ccc(F)cc2Cl)c1C(O)c1ccc(F)cc1I (centres unmarked) [compound 99] | 97 | 100 | 100 | 99 | – | – | – | –
COc1cc(F)c(-c2c(C(O)c3ccc(F)cc3F)c(C)nn2C)c(F)c1 (centres unmarked) [compound 172] | – | – | – | – | 99* % | 100* % | 100* % | 100* %
Cc1nn(C)c(-c2c(F)cccc2F)c1C(SC#N)c1ccc(F)cc1F (centres unmarked) [Compound 115] | – | – | – | – | 88* % | 100* % | 94* % | 99* %
Cn1nc(Cl)c(C(O)c2ccc(F)cc2Cl)c1-c1c(F)cccc1Cl (centres unmarked) [compound 135] | 100 | 100 | 100 | 99 | – | – | – | –
COc1ccc(C(O)c2c(OC)nn(C)c2-c2c(F)cccc2F)c(F)c1 (centres unmarked) [compound 161] | – | – | – | – | 94* % | 100* % | 92* % | 90* %

SMILES | Test A rating (% disease control) (Botrytis cinerea; [3]) [%] | Test D rating (% disease control) (Septoria tritici; [4]) [%] | Test E2 rating (% disease control) [1, 4] [%] | Test F rating (% disease control) [2, 4] [%] | Test A rating (% disease control) (Botrytis cinerea; [5]) | Test D rating (% disease control) (Septoria tritici; [5]) | Test E2 rating (% disease control) [1, 5] | Test F rating (% disease control) [2, 5]
Cn1nc(Cl)c(C(O)c2ccc(F)cc2Br)c1-c1c(F)cccc1Cl (centres unmarked) [compound 134] | 100 | 100 | 100 | 99 | – | – | – | –
COc1nn(C)c(-c2c(F)cc(Cl)cc2F)c1C(O)c1ccc(F)cc1Cl (centres unmarked) [compound 162] | – | – | – | – | 99* % | 100* % | 86* % | 64* %
Cc1nn(C)c(-c2ccc(Cl)cc2Cl)c1C(O)c1ccc(Cl)cc1F (centres unmarked) [compound 101] | – | 100 | 99 | 72 | – | – | – | –
COc1cc(F)c(-c2c(C(O)c3ccc(F)cc3Cl)c(C)nn2C)c(F)c1 (centres unmarked) [compound 171] | – | – | – | – | 100* % | 100* % | 100* % | 89* %
Cc1cc(F)ccc1C(O)c1c(C)nn(C)c1-n1ccnc1C (centres unmarked) [compound 147] | – | – | – | – | 0* % | 0* % | 17* % | 0* %
Cn1nc(Cl)c(C(O)c2ccc(F)cc2Br)c1-c1c(F)cccc1F (centres unmarked) [compound 136] | 100 | 100 | 100 | 100 | – | – | – | –
Cc1nn(C)c(-c2c(F)cc(Br)cc2F)c1C(=O)c1ccc(F)cc1F [compound 102] | 0 | 0 | 55 | 97 | – | – | – | –
COc1ccc(C(O)c2c(C)nn(C)c2-c2ccc(F)cc2Cl)c(Cl)c1 (centres unmarked) [compound 169] | – | – | – | – | 0* % | 68* % | 88* % | 0* %
COc1ccc(C(O)c2c(C)nn(C)c2-c2c(F)cccc2Cl)c(Cl)c1 (centres unmarked) [compound 170] | – | – | – | – | 100* % | 100* % | 100* % | 98* %
Cc1nn(C)c(-n2ccnc2Cl)c1C(O)c1ccc(F)cc1F (centres unmarked) [compound 151] | 16 | 0 | 99 | 43 | – | – | – | –
COc1nn(C)c(-c2c(F)cc(F)cc2F)c1C(O)c1ccc(F)cc1F (centres unmarked) [compound 153] | – | – | – | – | 100* % | 100* % | 100* % | 100* %
Cc1cc(F)ccc1C(O)c1c(Br)nn(C)c1-c1c(F)cccc1Cl (centres unmarked) [compound 149] | 100 | 100 | 100 | 100 | – | – | – | –
Cc1nn(C)c(-c2ccc(Cl)cc2Cl)c1C(O)c1ccc(F)cc1F (centres unmarked) [compound 97] | 99 | 100 | 100 | 99 | – | – | – | –
Cc1cc(F)ccc1C(O)c1c(Br)nn(C)c1-c1c(F)cccc1F (centres unmarked) [compound 165] | 100 | 100 | 100 | 100 | – | – | – | –
Cc1nn(C)c(-c2ccc(F)cc2Br)c1C(O)c1ccc(F)cc1Cl (centres unmarked) [compound 95] | – | – | – | – | 94* % | 99* % | 98* % | 95* %
COc1nn(C)c(-c2c(F)cccc2F)c1C(O)c1c(F)ccc(F)c1F (centres unmarked) [compound 138] | – | – | – | – | 66* % | 16* % | 55* % | 93* %
Cc1nn(C)c(-c2ccc(Cl)cc2Cl)c1C(O)c1ccc(F)cc1Cl (centres unmarked) [compound 100] | – | 100 | 100 | 99 | – | – | – | –
